Results reported in ChEMBL document CHEMBL1127944, “Synthesis of the potent and selective atypical -adrenergic agonist SR 59062A” (Bioorg Med Chem Lett, 1994).

Legend:
Adrenergic receptor beta [1] = molecular target: T1, Adrenergic receptor beta (Rattus norvegicus, UniProt P18090+P10608+P26255); assay: Beta-adrenergic agonistic activity in rat proximal colon in presence of phentolamine (10 uM), desmethylimipramine (0.5 uM) and hydrocortisone (30 uM); format: functional, tissue-based
Adrenergic receptor beta [2] = molecular target: T1, Adrenergic receptor beta; assay: Beta-adrenergic agonistic activity in rat uterus preincubated with phenoxybenzamine (12 uM) for 30 min; format: functional, tissue-based
Adrenergic receptor beta [3] = molecular target: Adrenergic receptor beta (Homo sapiens, UniProt P08588+P07550+P13945); assay: Beta-adrenergic agonistic activity in guinea-pig atrium preincubated with phenoxybenzamine (12 uM) for 30 min; format: functional, tissue-based, Cavia porcellus, Cardiac atrium; conditions: target entry is the homologue from another species
Adrenergic receptor beta [4] = molecular target: T1, Adrenergic receptor beta; assay: Beta-adrenergic agonistic activity in rat proximal colon; format: functional

Compound | IC50 (Adrenergic receptor beta [1]) [nM] | IC50 (Adrenergic receptor beta [2]) [nM] | EC50 (Adrenergic receptor beta [3]) [nM] | IC50 (Adrenergic receptor beta [4]) [nM]
CCOC(=O)CCc1ccc2c(c1)C[C@@H](NC[C@H](O)c1cccc(Cl)c1)CC2.Cl | 1.09 | 319 | > 30000 | –
CCOC(=O)c1ccc2c(c1)CC(NCC(O)c1cccc(Cl)c1)CC2.Cl (stereo not drawn) | – | 185 | > 30000 | 90
CCOC(=O)CCc1ccc2c(c1)CC(NCC(O)c1cccc(Cl)c1)CC2.Cl (stereo not drawn) | – | 350 | > 30000 | 21

Second part, the compound after the results:

IC50 (Adrenergic receptor beta [1]) [nM] | IC50 (Adrenergic receptor beta [2]) [nM] | EC50 (Adrenergic receptor beta [3]) [nM] | IC50 (Adrenergic receptor beta [4]) [nM] | Compound
3.5 | 499 | > 30000 | – | CCOC(=O)COc1ccc2c(c1)C[C@@H](NC[C@H](O)c1cccc(Cl)c1)CC2.Cl [AMIBEGRON HYDROCHLORIDE]
– | 1200 | > 30000 | 47 | CCOC(=O)COc1ccc2c(c1)C[C@@H](NC[C@H](O)c1cccc(Cl)c1)CC2.Cl (mixture of isomers) [AMIBEGRON HYDROCHLORIDE]
0.9 | 480 | > 30000 | – | CCOC(=O)CCc1ccc2c(c1)C[C@H](NC[C@H](O)c1cccc(Cl)c1)CC2.Cl
